From patent US6258790A, “Antisense modulation of integrin α4 expression” (Isis Pharmaceuticals, Inc., priority 1999, dated 2001)

Key:
[1] = tested on: Jurkat T-cell adherence to HUVEC; test: Adherence of Jurkat T-cells to HUVEC (flow cytometry); format: cell-based, human
Description: A similar adherence assay was performed using Jurkat T-cells instead of melanoma cells, again detecting adherence to HUVEC. Because Jurkat cells are smaller and less complex, they can be separated from HUVEC by gating on the basis of differences in forward light scatter and side scatter. For 5000 HUVEC events, adherent Jurkat cells were quantitated. At oligonucleotide concentrations of 1, 3, 10, and 30 μM ISIS 107248, adherence of Jurkat cells to HUVEC was 0, 12%, 32% and 63%, respectively.

human integrin α4 mRNA = test: Integrin α4 mRNA levels in A375 melanoma cells by real-time quantitative PCR; format: cell-based; conditions: 24 hours, electroporation
Description: Quantitation of integrin α4 mRNA levels was performed by real-time quantitative PCR using the ABI PRISM™ 7700 Sequence Detection System (PE-Applied Biosystems, Foster City, Calif.) according to manufacturer's instructions. This is a closed-tube, non-gel-based, fluorescence detection system which allows high-throughput quantitation of polymerase chain reaction (PCR) products in real-time. As opposed to standard PCR, in which amplification products are quantitated after the PCR is completed, products in real-time quantitative PCR are quantitated as they accumulate. This is accomplished by including in the PCR reaction an oligonucleotide probe that anneals specifically between the forward and reverse PCR primers, and contains two fluorescent dyes. A reporter dye (e.g., JOE or FAM, obtained from either Operon Technologies Inc., Alameda, Calif. or PE-Applied Biosystems, Foster City, Calif.) is attached to the 5' end of the probe and a quencher dye (e.g., TAMRA, obtained from either Operon Technologies Inc., Alameda, Calif. or PE-Applied Biosystems, Foster City, Calif.) is attached to the 3' end of the probe. When the probe and dyes are intact, reporter dye emission is quenched by the proximity of the 3' quencher dye. During amplification, annealing of the probe to the target sequence creates a substrate that can be cleaved by the 5'-exonuclease activity of Taq polymerase. […] With each cycle, additional reporter dye molecules are cleaved from their respective probes, and the fluorescence intensity is monitored at regular intervals by laser optics built into the ABI PRISM™ 7700 Sequence Detection System. In each assay, a series of parallel reactions containing serial dilutions of mRNA from untreated control samples generates a standard curve that is used to quantitate the percent inhibition after antisense oligonucleotide treatment of test samples.
PCR reagents were obtained from PE-Applied Biosystems, Foster City, Calif. RT-PCR reactions were carried out by adding 20 μL PCR cocktail (1×TAQMANT buffer A, 5.5 mM MgCl2, 300 μM each of dATP, dCTP and dGTP, 600 μM of dUTP, 400 nM each of forward primer and reverse primer (or 100 nM in the case of G3PDH), 100 nM probe, 20 Units RNAse inhibitor, 1.25 Units AMPLITAQ GOLD™, and 12.5 Units MuLV reverse transcriptase) to 5 μL (100 ng) total mRNA solution, purified using the RNEasy™ kit (Qiagen, Valencia Calif.). The RT reaction was carried out by incubation for 30 minutes at 48° C. Following a 10 minute incubation at 95° C. to activate the AMPLITAQ GOLD™, 40 cycles of a two-step PCR protocol were carried out: 95° C. for 15 seconds (denaturation) followed by 60° C. for 1.5 minutes (annealing/extension). Integrin α4 probes and primers were designed to hybridize to the human integrin α4 sequence, using published sequence information (GenBank accession number L12002), incorporated herein as SEQ ID NO:1).
For integrin α4 the PCR primers were: forward primer: GACACGCTGCGCCTCAT (SEQ ID NO: 94, hybridizes at position 319-335 of Genbank accession no. L12002) reverse primer: […] (SEQ ID NO: 95, hybridizes at position 391-412 of Genbank accession no. L12002) and the PCR probe was: FAM-[…]-TAMRA (probe is SEQ ID NO: 96; hybridizes at position 361-382 of Genbank accession no. L12002) where FAM (PE-Applied Biosystems, Foster City, Calif.) is the fluorescent reporter dye) and TAMRA (PE-Applied Biosystems, Foster City, Calif.) is the quencher dye. […]

Substance: 107248 (antisense CTGAGTCTGTTTTCCATTCT; chemistry not given here) [compound 107248]
- adherence of Jurkat cells to HUVEC ([1]; 1 μM): 0%
- adherence of Jurkat cells to HUVEC ([1]; 3 μM): 12%
- adherence of Jurkat cells to HUVEC ([1]; 10 μM): 32%
- adherence of Jurkat cells to HUVEC ([1]; 30 μM): 63%
- reduction of integrin α4 mRNA levels compared to control (human integrin α4 mRNA; 0.3 μM): approximately 23%
- reduction of integrin α4 mRNA levels compared to control (human integrin α4 mRNA; 1 μM): ~38%
- reduction of integrin α4 mRNA levels compared to control (human integrin α4 mRNA; 3 μM): ~70%
- reduction of integrin α4 mRNA levels compared to control (human integrin α4 mRNA; 10 μM): ~80%
- reduction of integrin α4 mRNA levels compared to control (human integrin α4 mRNA; 30 μM): ~85%
